Data as given in US5747235A, “Silver halide light sensitive emulsion layer having enhanced photographic sensitivity” (Eastman Kodak Company, priority 1996, dated 1998).

What was measured:
Type in all cases: physicochemical
[1] = oxidation potential E1 by cyclic voltammetry; conditions: Table A; 80%/20% acetonitrile/water, 0.1M lithium perchlorate, 25° C.
Protocol: Oxidation potentials are well known and can be found, for example, in "Encyclopedia of Electrochemistry of the Elements", Organic Section, Volumes XI-XV, A. Bard and H. Lund (Editors) Marcel Dekker Inc., NY. (1984). E1 can be measured by the technique of cyclic voltammetry. In this technique, the electron donating compound is dissolved in a solution of 80%/20% by volume acetonitrile to water containing 0.1M lithium perchlorate. Oxygen is removed from the solution by passing nitrogen gas through the solution for 10 minutes prior to measurement. A glassy carbon disk is used for the working electrode, a platinum wire is used for the counter electrode, and a saturated calomel electrode (SCE) is used for the reference electrode. Measurement is conducted at 25° C. using a potential sweep rate of 0.1 V/sec. The oxidation potential vs. SCE is taken as the peak potential of the cyclic voltammetric wave.

[2] = oxidation potential E2 of radical X by laser flash photolysis; conditions: Table C; by parent XY compound; < = more negative than
Description: In this technique, the compound X-Y is oxidized by an electron transfer reaction initiated by a short laser pulse. The oxidized form of X-Y then undergoes the bond cleavage reaction to give the radical X^.cndot.. X^.cndot. is then allowed to interact with various electron acceptor compounds of known reduction potential. […] The experimental details are set forth more fully below. The oxidation potentials (E2) for radicals X^.cndot. for typical compounds useful in accordance with our invention are given in Table C. Where only limits on potentials could be determined, the following notation is used: <-0.90 V should be read as "more negative than -0.90 V" and >-0.40 V should be read as "less negative than -0.40 V".
(a) Oxidation Potential of Radical X.cndot.
The laser flash photolysis measurements were performed using a nanosecond pulsed excimer (Questek model 2620, 308 nm, ca. 20 ns, ca. 100 mJ) pumped dye laser (Lambda Physik model FL 3002). The laser dye was DPS (commercially available from Exciton Co.) in p-dioxane (410 nm, ca. 20 ns, ca. 10 mJ). The analyzing light source was a pulsed 150W xenon arc lamp (Osram XBO 150/W). The arc lamp power supply was a PRA model 302 and the pulser was a PRA model M-306. The pulser increased the light output by ca. 100 fold, for a time period of ca. 2-3 ms. The analyzing light was focussed through a small aperture (ca. 1.5 mm) in a cell holder designed to hold 1 cm^2 cuvettes. The laser and analyzing beams irradiated the cell from opposite directions and crossed at a narrow angle (ca. 15°). After leaving the cell, the analyzing light was collimated and focussed onto the slit (1 mm, 4 nm bandpass) of an ISA H-20 monochromator. The light was detected using 5 dynodes of a Hamamatsu model R446 photomultiplier. The output of the photomultiplier tube was terminated into 50 ohm, and captured using a Tektronix DSA-602 digital oscilloscope. The entire experiment is controlled from a personal computer.
The experiments were performed either in acetonitrile, or a mixture of 80% acetonitrile and 20% water. The first singlet excited state of a cyanoanthracene (A), which acted as the electron acceptor, was produced using the nanosecond laser pulse at 410 nm. […] Secondary electron transfer then occurred between B^.cndot.+ and the lower oxidation potential electron donor X-Y, to generate X-Y^.cndot.+ in high yield. For the investigations of the oxidation potentials of the radicals X^.cndot., typically the cyanoanthrancene concentration was ca. 2×10^-5 M to 10^-4 M the biphenyl concentration was ca. 0.1M. The concentration of the X-Y donor was ca. 10^-3 M. The rates of the electron transfer reactions are determined by the concentrations of the substrates. The concentrations used ensured that the A^.cndot.- and the X-Y^.cndot.+ were generated within 100 ns of the laser pulse. The radical ions could be observed directly by means of their visible absorption spectra. The kinetics of the photogenerated radical ions were monitored by observation of the changes in optical density at the appropriate wavelengths.
The reduction potential (Ered) of 9,10-dicyanoanthracene (DCA) is -0.91 V. In a typical experiment, DCA is excited and the initial photo-induced electron transfer from the biphenyl (B) to the DCA forms a DCA^.cndot.-, which is observed at its characteristic absorption maximum (λobs =705 nm), within ca. 20 ns of the laser pulse. Rapid secondary electron transfer occurs from X-Y to B^.cndot.+ to generate X-Y^.cndot.+, which fragments to give X^.cndot.. A growth in absorption is then observed at 705 nm with a time constant of ca. 1 microsecond, due to reduction of a second DCA by the X^.cndot.. The absorption signal with the microsecond growth time is equal to the size of the absorption signal formed within 20 ns.
If the oxidation potential of X^.cndot. is not sufficiently negative to reduce DCA, an estimate of its oxidation potential was obtained by using other cyanoanthracenes as acceptors. […]

[3] = fragmentation rate constant kfr by laser flash photolysis; conditions: Table B; CH3CN/H2O (4:1)
Description: The kinetics of the bond cleavage or fragmentation reaction can be measured by conventional laser flash photolysis. […] The specific experimental apparatus we used to measure fragmentation rate constants and radical oxidation potentials is described in detail below.
(b) Fragmentation Rate Constant Determination
These absorptions were used to determine the kinetics of the fragmentation reactions of the radical cations of the X-Y. Excitation of 9,10-dicyanoanthracene (DCA) in the presence of biphenyl and the X-Y donor, as described above, results in the formation of the DCA^.cndot.- and the X-Y^.cndot.+. By using a concentration of X-Y of ca. 10^-2 M, the X-Y^.cndot.+ can be formed within ca. 20 ns of the laser pulse. […] The monitoring wavelengths used were somewhat different for the different donors, but were mostly around 470-530 nm. […] Alternatively, when the decay rate of the X-Y^.cndot.+ was less than 10^6 s^-1, the solutions were purged with oxygen.
The experiments measuring the fragmentation rate constants were performed in acetonitrile with the addition of 20% water, so that all of the salts could be easily solubilized. Most experiments were performed at room temperature. […] When this happened, the fragmentation rate constants were measured as a function of temperature, and the rate constant at room temperature determined by extrapolation.

SMILES	Oxidation Potential of X--Y, E1 [1]	Oxidation Potentials of Radicals (X*), E2 [2]	kfr, Rate Constants for Decarboxylation of Radical Cations [3]
CCCCN(c1ccccc1)C(C)C(=O)O (centres unmarked) [Compound 37]	0.43 V vs SCE		
Cc1ccc(NC(CC(=O)O)C(=O)O)cc1 (centres unmarked) [Compound 29]	0.52 V vs SCE	< -0.9 V	5.4e+06 s⁻¹
CC(C(=O)O)N(CC(=O)O)c1ccccc1 (centres unmarked) [Compound 14]	0.50 V vs SCE	< -0.9 V	> 2e+07 s⁻¹
CCOC(=O)c1ccc(NC(C)C(=O)O)cc1 (centres unmarked) [Compound 28]	0.61 V vs SCE		
CC(Nc1ccccc1)C(=O)O (centres unmarked) [Compound 24]	0.52 V vs SCE		
CC(C(=O)O)N(CC(=O)O)c1ccc(C=O)cc1 (centres unmarked) [Compound 17]	0.74 V vs SCE		
CN(C)c1ccc(CC(=O)O)cc1 [Compound 1]	0.53 V vs SCE	> -0.5 V	~ 3.0 × 10^5 s^-1
O=C(O)C(O)c1c2ccccc2cc2ccccc12 (centres unmarked) [Compound 56]	0.65 V vs SCE	< -0.9 V	120000 s⁻¹
CCN(CC)S(=O)(=O)c1ccc(N(CC(=O)O)C(C)C(=O)O)cc1 (centres unmarked) [Compound 19]	0.68 V vs SCE		
CC(C(=O)O)N(CC(=O)O)c1ccc(S(=O)(=O)O)cc1 (centres unmarked) [Compound 18]	0.70 V vs SCE		
O=C(O)COc1ccccc1N(CC(=O)O)CC(=O)O [Compound 22]	0.65 V vs SCE		
O=C(O)COc1ccc(N(CC(=O)O)CC(=O)O)cc1 [Compound 9]	0.38 V vs SCE		
COc1ccc(N(CC(=O)O)CC(=O)O)cc1OC [Compound 21]	0.36 V vs SCE		1000 s⁻¹
CC(Nc1ccc(C(N)=O)cc1)C(=O)O (centres unmarked) [Compound 27]	0.62 V vs SCE		
CC(Nc1cccc(C(N)=O)c1)C(=O)O (centres unmarked) [Compound 32]	0.58 V vs SCE		
O=C(O)C(O)c1ccccc1 (centres unmarked) [Compound 49]	~ 1.2 V vs SCE	-0.75 V	
CC(C(=O)O)N(c1ccccc1)c1ccccc1 (centres unmarked) [Compound 58]	0.49 V vs SCE		
CCCCN(c1ccccc1)C(CC(=O)O)C(=O)O (centres unmarked) [Compound 41]	0.48 V vs SCE		
CN(C)c1ccc(C(C)(O)C(=O)O)cc1 (centres unmarked) [Compound 5]	0.51 V vs SCE	< -0.9 V	
COc1ccc(NC(C)C(=O)O)cc1 (centres unmarked) [Compound 23]	0.37 V vs SCE		
Cn1cc(C(O)C(=O)O)c2ccccc21 (centres unmarked) [Compound 43]	0.61 V vs SCE	-0.89 V	
CC(C(=O)O)c1cn(C)c2ccccc12 (centres unmarked) [Compound 45]	0.64 V vs SCE	-0.56 V	
CCN(CC)c1ccc(C(O)C(=O)O)cc1 (centres unmarked) [Compound 2]	0.50 V vs SCE	< -0.9 V	

SMILES	Oxidation Potential of X--Y, E1 [1]	Oxidation Potentials of Radicals (X*), E2 [2]	kfr, Rate Constants for Decarboxylation of Radical Cations [3]
CN(C)c1ccc(C(O)C(=O)O)cc1 (centres unmarked) [Compound 3]			550000 s⁻¹
CCCCN(c1ccc(C)cc1)C(C)C(=O)O (centres unmarked) [Compound 35]	0.34 V vs SCE		
CC(Nc1ccc(Cl)cc1)C(=O)O (centres unmarked) [Compound 26]	0.51 V vs SCE		
O=C(O)CC(Nc1ccccc1)C(=O)O (centres unmarked) [Compound 30]	0.60 V vs SCE		
COc1ccc(C(O)C(=O)O)cc1 (centres unmarked) [Compound 50]	~ 1.05 V vs SCE	< -0.9 V	
COc1cc(OC)c(C(O)C(=O)O)cc1OC (centres unmarked) [Compound 48]	0.70 V vs SCE	< -0.9 V	
Cc1ccc(N(CCC(=O)O)C[Si](C)(C)C)cc1 [Compound 42]	0.30 V vs SCE	~ -0.9 V	
Nc1nc(C(O)C(=O)O)cs1 (centres unmarked) [Compound 60]	0.80 V vs SCE		
CCCCN(c1ccc(C(=O)O)cc1)C(C)C(=O)O (centres unmarked) [Compound 38]	0.48 V vs SCE		
O=C(O)CC(Nc1ccc(C(=O)O)cc1)C(=O)O (centres unmarked) [Compound 31]	0.61 V vs SCE		
CCN(c1cccc(C(N)=O)c1)C(C)C(=O)O (centres unmarked) [Compound 34]	0.52 V vs SCE		
CC(C)(Nc1ccccc1)C(=O)O [Compound 59]	0.53 V vs SCE		
CCC(C)c1ccc(N(CC(=O)O)C(C)C(=O)O)cc1 (centres unmarked) [Compound 16]	0.47 V vs SCE	~ -0.9 V	
CC(C(=O)O)N(C)c1ccc(C(=O)O)cc1 (centres unmarked) [Compound 33]	0.54 V vs SCE	< -0.9 V	
CCCCN(c1ccc(C)cc1)C(CC(=O)O)C(=O)O (centres unmarked) [Compound 40]	0.38 V vs SCE		1.3e+07 s⁻¹
Cn1cc(CC(=O)O)c2ccccc21 [Compound 46]	0.68 V vs SCE	~ -0.34 V	
CC(Nc1ccc(C(=O)O)cc1)C(=O)O (centres unmarked) [Compound 25]	0.62 V vs SCE		
O=C(O)CN(CC(=O)O)c1ccc(Cl)cc1 [Compound 12]	0.58 V vs SCE		
CCCCN(c1ccc(Cl)cc1)C(C)C(=O)O (centres unmarked) [Compound 39]	0.40 V vs SCE		
CC1CC(C)(C)N(CC(=O)O)c2ccccc21 (centres unmarked) [Compound 47]		~ -0.9 V	> 10^7 s^-1
CCN(CC)c1ccc(C(C)(O)C(=O)O)cc1 (centres unmarked) [Compound 4]	0.49 V vs SCE		
COc1ccc(C(O)C(=O)O)cc1OC (centres unmarked) [Compound 51]	0.91 V vs SCE	< -0.9 V	
